Measurements: patent US20100041760A1, “MONOARYL AMINOTETRALINES” (priority 2008, published 2010)

Target: T1, human CRTH2 (Homo sapiens, UniProt Q9Y5Y4)
T1 sequence (Q9Y5Y4 1-395): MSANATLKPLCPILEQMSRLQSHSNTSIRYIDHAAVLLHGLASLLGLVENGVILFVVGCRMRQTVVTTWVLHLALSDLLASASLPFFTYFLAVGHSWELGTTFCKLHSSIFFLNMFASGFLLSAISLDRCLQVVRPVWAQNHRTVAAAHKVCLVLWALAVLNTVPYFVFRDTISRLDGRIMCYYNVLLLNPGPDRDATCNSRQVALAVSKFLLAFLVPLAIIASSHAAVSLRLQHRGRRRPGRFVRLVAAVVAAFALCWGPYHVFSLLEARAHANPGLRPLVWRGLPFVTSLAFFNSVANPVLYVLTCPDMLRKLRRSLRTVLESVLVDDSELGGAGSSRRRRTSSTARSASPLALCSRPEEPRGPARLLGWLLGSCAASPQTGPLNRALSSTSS
Assay: Calcium Flux Assay Using Fluorometric Imaging Plate Reader (FLIPR)
Type: cell-based
Set-up: expressed in transfected cells; host or cells: CHO-K1 previously transfected with G-alpha 16
Settings: CHO-K1 cells with G-alpha 16 and human CRTH2; inhibition of ligand (DK-PGD2) response; read-out: IC50 value in FLIPR calcium flux assay
Method: CHO-K1 cells previously transfected with G-alpha 16 were subsequently transfected with the human CRTH2 receptor and the neomycin resistance gene. Following selection in 800 μg/mL G418 (geneticin), individual clones were assayed for their receptor expression based on staining with an anti human CRTH2 IgG, followed by assaying for their response to 13,14-dihydro-15-keto Prostaglandin D2 (DK-PDG2) (ligand) in the Ca^2+ Flux assay. Positive clones were then cloned by limiting dilution cloning. The transfected cells were cultured in Ham's F-12 medium supplemented with 10% fetal bovine serum, 2 mM glutamine, 100 U/mL penicillin/100 μg/mL streptomycin, 200 μg/mL hygromycin B, and 800 μg/mL G418 (geneticin). Cells were harvested with trypsin-EDTA (trypsin-ethylenediaminetetraacetic acid) and counted using ViaCount® reagent (from Guava Technologies, Inc. which contains two DNA-binding dyes that enable the reagent user to distinguish between viable and non-viable cells). The cell suspension volume was adjusted to 2.5×10^5 cells /mL with complete growth media. Aliquots of 50 μL were dispensed into BD Falcon™ 384 well black/clear microplates (from BD Biosciences, a division of Becton, Dickinson and Company) and the microplates were placed in a 37° C. CO2 incubator overnight. The following day, the microplates were used in the assay.
Loading Buffer containing dye (from the FLIPR® Calcium 3 Assay Kit from Molecular Devices, a division of MDS Analytical Technologies and MDS Inc.) was prepared by dissolving the contents of one bottle into 200 mL Hank's Balanced Salt Solution containing 20 mM HEPES (4-(2-hydroxyethyl)-1-piperazineethanesulfonic acid) and 2.5 mM probenecid. Growth media was removed from the cell plates and 25 μL of Hank's Balanced Salt Solution (HBSS) containing 20 mM HEPES, 0.05% BSA and 2.5 mM probenecid was added to each well followed by 25 μL of diluted dye using a Multidrop dispenser. The plates were then incubated for 1 hour at 37° C.
During the incubation, test compound plates were prepared by adding 90 μL of HBSS/20 mM HEPES/0.005% BSA buffer to the 2 μL of serial diluted compounds. To prepare serial diluted compounds, 20 mM stocks of compounds were dissolved in 100% DMSO. The compound dilution plate was set up as follows: well #1 received 5 μL of compound plus 10 μL of DMSO. Wells 2-10 received 10 μL of DMSO. 5 μL was mixed and transferred from well #1 into well #2. 1:3 serial dilutions were continued out 10 steps. 2 μL of diluted compound was transferred into duplicate wells of a 384 well “assay plate” and then 90 μL of buffer was added.
After incubation, both the cell and “assay plate” plates were brought to the fluorometric imaging plate reader (FLIPR®) and 20 μL of the diluted compounds were transferred to the cell plates by the FLIPR®. Plates were then incubated for 1 hour at room temperature. After the 1 hour incubation, plates were returned to the FLIPR® and 20 μL of 4.5× concentrated ligand was added to the cell plates. During the assay, fluorescence readings were taken simultaneously from all 384 wells of the cell plate every 1.5 seconds. Five readings were taken to establish a stable baseline, then 20 μL of sample was rapidly (30 μL/sec) and simultaneously added to each well of the cell plate. The fluorescence was continuously monitored before, during and after sample addition for a total elapsed time of 100 seconds. Responses (increase in peak fluorescence) in each well following agonist addition were determined. The initial fluorescence reading from each well, prior to ligand stimulation, was used as a zero baseline value for the data from that well. The responses were expressed as % inhibition of the buffer control. […]

Point of comparison: O=C(O)COc1cccc2c1CCC[C@H]2NS(=O)(=O)c1cc(F)cc(C(F)(F)F)c1 [Example 10-12, [(R)-5-(3-fluoro-5-trifluoromethyl-benzenesulfonylamino)-5,6,7,8-tetrahydro-naphthalen-1-yloxy]-acetic acid], IC50 313 nM. Against it:
- CN([C@@H]1CCCc2c(OCC(=O)O)cccc21)S(=O)(=O)c1cc(F)cc(C(F)(F)F)c1 [Example 1-1, {(R)-5-[(3-fluoro-5-trifluoromethyl-benzenesulfonyl)-methyl-amino]-5,6,7,8-tetrahydro-naphthalen-1-yloxy}-acetic acid] — 5.7-fold higher, 1770 nM
- CCN(CC)c1cc(C(F)(F)F)cc(S(=O)(=O)N(C)[C@@H]2CCCc3c(OCC(=O)O)cccc32)c1 [Example 4-2, {(R)-5-[(3-diethylamino-5-trifluoromethyl-benzenesulfonyl)-methyl-amino]-5,6,7,8-tetrahydro-naphthalen-1-yloxy}-acetic acid] — 6.4-fold higher, 2010 nM
- CN([C@@H]1CCCc2c(OCC(=O)O)cccc21)S(=O)(=O)c1cc(OC2CCCC2)cc(C(F)(F)F)c1 [Example 9-3, {(R)-5-[(3-cyclopentyloxy-5-trifluoromethyl-benzenesulfonyl)-methyl-amino]-5,6,7,8-tetrahydro-naphthalen-1-yloxy}-acetic acid] — within 1.5-fold, 462 nM
- O=C(O)COc1cccc2c1CCC[C@H]2NS(=O)(=O)c1cc(F)cc(F)c1 [Example 10-5, [(R)-5-(3,5-difluoro-benzenesulfonylamino)-5,6,7,8-tetrahydro-naphthalen-1-yloxy]-acetic acid] — 3.3-fold lower, 94 nM

Same assay, conditions: CHO-K1 cells with G-alpha 16 and human CRTH2; unit inferred; read-out: IC50 value in FLIPR calcium flux assay (unit inferred)

Work on O=C(O)COc1cccc2c1CCC[C@H]2NS(=O)(=O)c1cc(Cl)cc(Cl)c1 [Example 10-1, [(R)-5-(3,5-dichloro-benzenesulfonylamino)-5,6,7,8-tetrahydro-naphthalen-1-yloxy]-acetic acid] yielded an IC50 of ~3000 nM.
